Results as given in PubChem BioAssay AID248 (DTP/NCI, 2004).
Toxic doses and inconclusive results are not listed. Cut-off read from the data, not from the text of the source: active = T/C of 150% or more; inactive = T/C below 125%.

Tested on: L1210 leukemia ip in BDF1 mice, survival T/C
Experiment: NCI In Vivo Anticancer Drug Screen. Data for tumor model L1210 Leukemia (intraperitoneal) in B6D2F1 (BDF1) mice
Conditions: endpoint: mean survival time, higher = longer survival
In short: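 Ratio derived from survival: compound-dosed mice over vehicle-dosed mice, all bearing a transplantable tumor.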

[1] = dose: 50.0 mg/kg/injection, schedule: Q01DX001 (ip), vehicle: Klucel (hydroxypropylcellulose) (HPC)
[2] = dose: 100.0 mg/kg/injection, schedule: Q01DX001 (ip), vehicle: Klucel (hydroxypropylcellulose) (HPC)
[3] = dose: 200.0 mg/kg/injection, schedule: Q01DX001 (ip), vehicle: Klucel (hydroxypropylcellulose) (HPC)
[4] = dose: 6.25 mg/kg/injection, schedule: Q01DX009 (ip), vehicle: saline with Tween-80
[5] = dose: 100.0 mg/kg/injection, schedule: Q01DX001 (ip), vehicle: saline
[6] = dose: 200.0 mg/kg/injection, schedule: Q01DX001 (ip), vehicle: saline
[7] = dose: 400.0 mg/kg/injection, schedule: Q01DX001 (ip), vehicle: saline
[8] = dose: 100.0 mg/kg/injection, schedule: Q01DX001 (ip), vehicle: carboxymethylcellulose (CMC)
[9] = dose: 200.0 mg/kg/injection, schedule: Q01DX001 (ip), vehicle: carboxymethylcellulose (CMC)
[10] = dose: 400.0 mg/kg/injection, schedule: Q01DX001 (ip), vehicle: carboxymethylcellulose (CMC)
[11] = dose: 12.5 mg/kg/injection, schedule: Q04DX003 (ip), vehicle: saline
[12] = dose: 25.0 mg/kg/injection, schedule: Q04DX003 (ip), vehicle: saline
[13] = dose: 100.0 mg/kg/injection, schedule: Q04DX003 (ip), vehicle: saline with Tween-80
[14] = dose: 200.0 mg/kg/injection, schedule: Q04DX003 (ip), vehicle: saline with Tween-80
[15] = dose: 400.0 mg/kg/injection, schedule: Q04DX003 (ip), vehicle: saline with Tween-80
[16] = dose: 100.0 mg/kg/injection, schedule: Q01DX009 (ip), vehicle: saline with Tween-80
[17] = dose: 200.0 mg/kg/injection, schedule: Q01DX009 (ip), vehicle: saline with Tween-80
[18] = dose: 400.0 mg/kg/injection, schedule: Q01DX001 (ip), vehicle: Klucel (hydroxypropylcellulose) (HPC)
[19] = dose: 100.0 mg/kg/injection, schedule: Q01DX009 (ip), vehicle: Klucel (hydroxypropylcellulose) (HPC)
[20] = dose: 200.0 mg/kg/injection, schedule: Q01DX009 (ip), vehicle: Klucel (hydroxypropylcellulose) (HPC)
[21] = dose: 400.0 mg/kg/injection, schedule: Q01DX009 (ip), vehicle: Klucel (hydroxypropylcellulose) (HPC)

Measured: T/C

O=C1C=C(N2C3C4CCC(C4)C32)C(=O)C=C1c1ccccc1 (stereo not drawn)
inactive: [1] 96 % of control | [2] 97 % of control | [3] 94 % of control

O=c1cc(NCc2cccc3ccc(Cl)cc23)[nH]c(=O)[nH]1
inactive: [1] 92 % of control | [2] 88 % of control | [3] 87 % of control

O=S(=O)(F)c1cc(C[P+](c2ccccc2)(c2ccccc2)c2ccccc2)ccc1Cl
inactive: [4] 105 % of control | dose: 12.5 mg/kg/injection, schedule: Q01DX009 (ip), vehicle: saline with Tween-80 102 % of control | dose: 25.0 mg/kg/injection, schedule: Q01DX009 (ip), vehicle: saline with Tween-80 103 % of control

Cc1cc2nc3c(N)ccc(N)c3nc2cc1N
inactive: dose: 100.0 mg/kg/injection, schedule: Q04DX002 (ip), vehicle: saline with Tween-80 97 % of control | dose: 200.0 mg/kg/injection, schedule: Q04DX002 (ip), vehicle: saline with Tween-80 97 % of control | dose: 400.0 mg/kg/injection, schedule: Q04DX002 (ip), vehicle: saline with Tween-80 105 % of control

O=S(=O)(CCCCl)N1CCOCC1
inactive: [5] 102 % of control | dose: 100.0 mg/kg/injection, schedule: Q04DX003 (ip), vehicle: saline 97 % of control | [6] 106 % of control | dose: 200.0 mg/kg/injection, schedule: Q04DX003 (ip), vehicle: saline 106 % of control | [7] 100 % of control | dose: 400.0 mg/kg/injection, schedule: Q04DX003 (ip), vehicle: saline 95 % of control

Nc1cc2c(cc1Br)-c1cc(Br)c(N)cc1C2=O
inactive: [8] 98 % of control | [9] 98 % of control | [10] 102 % of control

O=[N+]([O-])c1ccc2n[nH]c(Cl)c2c1
inactive: [5] 95 % of control | [6] 95 % of control | [7] 94 % of control

O=C1C[N+]2(CCCCC2)c2ccc(Cl)cc2N1
inactive: dose: 6.25 mg/kg/injection, schedule: Q01DX009 (ip), vehicle: saline 87 % of control | dose: 6.25 mg/kg/injection, schedule: Q04DX003 (ip), vehicle: saline 91 % of control | dose: 12.5 mg/kg/injection, schedule: Q01DX009 (ip), vehicle: saline 92 % of control | [11] 91 % of control | dose: 25.0 mg/kg/injection, schedule: Q01DX009 (ip), vehicle: saline 95 % of control | [12] 93 % of control

COC(=O)C(Cl)(Cl)C1(c2ccccc2)OCC(C)(C)N1C(=O)C(Cl)Cl (stereo not drawn)
inactive: [13] 115 % of control | [14] 94 % of control | [15] 103 % of control

Cc1ccc(S(=O)(=O)OCCN(CCOS(=O)(=O)c2ccc(C)cc2)c2cccc(Cl)c2)cc1
inactive: dose: 50.0 mg/kg/injection, schedule: Q01DX001 (ip), vehicle: carboxymethylcellulose (CMC) 98 % of control | [8] 98 % of control | [9] 109 % of control | [10] 114 % of control

Cc1[o+]c(C)c2c(c1C)-c1ccccc1C2=O
inactive: dose: 50.0 mg/kg/injection, schedule: Q01DX009 (ip), vehicle: saline with Tween-80 93 % of control | [16] 96 % of control | [13] 98 % of control | [17] 105 % of control | [14] 98 % of control | [15] 98 % of control

NCCNC(=S)S
inactive: [2] 103 % of control | [16] 93 % of control | [13] 93 % of control | [3] 95 % of control | [17] 87 % of control | [14] 95 % of control | [18] 103 % of control | dose: 400.0 mg/kg/injection, schedule: Q01DX009 (ip), vehicle: saline with Tween-80 86 % of control | [15] 91 % of control

CCCC/C=C/CCCC
inactive: dose: 75.0 mg/kg/injection, schedule: Q01DX009 (ip), vehicle: saline 100 % of control | dose: 300.0 mg/kg/injection, schedule: Q01DX009 (ip), vehicle: saline 86 % of control

O=C1OC(c2cccc(Cl)c2)=N/C1=C\c1cccc([N+](=O)[O-])c1
inactive: dose: 100.0 mg/kg/injection, schedule: Q04DX002 (ip), vehicle: Klucel (hydroxypropylcellulose) (HPC) 103 % of control | dose: 200.0 mg/kg/injection, schedule: Q04DX002 (ip), vehicle: Klucel (hydroxypropylcellulose) (HPC) 100 % of control | dose: 400.0 mg/kg/injection, schedule: Q04DX002 (ip), vehicle: Klucel (hydroxypropylcellulose) (HPC) 103 % of control

O=C1c2ccccc2-c2nc3cc4ccccc4cc3nc21
inactive: [2] 98 % of control | [19] 98 % of control | [3] 88 % of control | [20] 97 % of control | [18] 97 % of control | [21] 102 % of control

Cc1ccc(NC(=O)COc2ccc(Cl)cc2)cc1
inactive: dose: 100.0 mg/kg/injection, schedule: Q04DX002 (ip), vehicle: saline + alcohol 103 % of control | dose: 200.0 mg/kg/injection, schedule: Q04DX002 (ip), vehicle: saline + alcohol 100 % of control | dose: 400.0 mg/kg/injection, schedule: Q04DX002 (ip), vehicle: saline + alcohol 92 % of control

O/N=C/C=N/O.O/N=C/C=N/O.[Pd]
inactive: dose: 1.56 mg/kg/injection, schedule: Q01DX009 (ip), vehicle: saline with Tween-80 110 % of control | dose: 3.13 mg/kg/injection, schedule: Q01DX009 (ip), vehicle: saline with Tween-80 97 % of control | [4] 112 % of control

COc1cccc(/C=c2\[nH]c(=O)/c(=C/c3cccc(OC)c3OC)[nH]c2=O)c1OC
inactive: [19] 94 % of control | dose: 100.0 mg/kg/injection, schedule: Q04DX003 (ip), vehicle: Klucel (hydroxypropylcellulose) (HPC) 88 % of control | [20] 87 % of control | dose: 200.0 mg/kg/injection, schedule: Q04DX003 (ip), vehicle: Klucel (hydroxypropylcellulose) (HPC) 91 % of control | [21] 96 % of control | dose: 400.0 mg/kg/injection, schedule: Q04DX003 (ip), vehicle: Klucel (hydroxypropylcellulose) (HPC) 91 % of control

NC(=O)c1ccccc1Nc1ccc([N+](=O)[O-])cc1[N+](=O)[O-]
inactive: dose: 34.0 mg/kg/injection, schedule: Q01DX Z (ip), vehicle: carboxymethylcellulose (CMC) 95 % of control | dose: 49.0 mg/kg/injection, schedule: Q01DX Z (ip), vehicle: carboxymethylcellulose (CMC) 95 % of control

CCCOCCOCCOC(C)Oc1cc(OC)ccc1OC (stereo not drawn)
inactive: dose: 100.0 mg/kg/injection, schedule: Q04DX002 (ip), vehicle: saline 93 % of control | dose: 200.0 mg/kg/injection, schedule: Q04DX002 (ip), vehicle: saline 111 % of control | dose: 400.0 mg/kg/injection, schedule: Q04DX002 (ip), vehicle: saline 96 % of control

NC(CSS(=O)(=O)O)=NCc1ccsc1
inactive: dose: 6.25 mg/kg/injection, schedule: Q01DX009 (ip), vehicle: Klucel (hydroxypropylcellulose) (HPC) 96 % of control | dose: 12.5 mg/kg/injection, schedule: Q01DX009 (ip), vehicle: Klucel (hydroxypropylcellulose) (HPC) 104 % of control | dose: 12.5 mg/kg/injection, schedule: Q04DX002 (ip), vehicle: Klucel (hydroxypropylcellulose) (HPC) 100 % of control | dose: 25.0 mg/kg/injection, schedule: Q01DX009 (ip), vehicle: Klucel (hydroxypropylcellulose) (HPC) 101 % of control | dose: 25.0 mg/kg/injection, schedule: Q04DX002 (ip), vehicle: Klucel (hydroxypropylcellulose) (HPC) 95 % of control

CC(C)(CO)C(O)C(=O)NN (stereo not drawn)
inactive: [5] 91 % of control | [6] 94 % of control

CCOC=Nc1cc[n+]([O-])nc1C
inactive: dose: 43.75 mg/kg/injection, schedule: Q04DX002 (ip), vehicle: saline 104 % of control | dose: 87.5 mg/kg/injection, schedule: Q04DX002 (ip), vehicle: saline 104 % of control | dose: 175.0 mg/kg/injection, schedule: Q04DX002 (ip), vehicle: saline 104 % of control

NCC(=O)CCS(=O)(=O)c1ccc(Cl)cc1
inactive: [11] 96 % of control | [12] 91 % of control | dose: 50.0 mg/kg/injection, schedule: Q04DX003 (ip), vehicle: saline 93 % of control
